Laboratory results reported in patent US6706664B1, “Benzoxazole compounds, process for the preparation thereof and herbicides” (UBE Industries, Ltd., priority 1999, dated 2004).

Assays:
Set-up in all cases: key: 0: normal development; 1: Less damaged; 2: Slightly damaged; 3: Moderately damaged; 4: Severely damaged; 5: All killed
[1] = system: monochoria; assay: Herbicidal test for paddy field; type: in vivo, Monochoria vaginalis; conditions: paddy field pot, 500 g/ha dropwise at 1.5 leaf stage of barnyardgrass, 3 weeks, rank vs non-treated
Procedure, shortened: (§1)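 Scores ran from 0 (normal development) to 5 (all killed) against untreated pots, judged after 3 weeks in a glasshouse averaging 25° C. Compound, as wettable powder diluted in water with 0.05% surfactant, was applied dropwise into 3 cm-deep paddy water at 500 g/ha. Application was at the 1.5-leaf stage of barnyardgrass.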

[2] = system: velvetleaf; assay: Foliar spread test for upland field; type: in vivo, Abutilon theophrasti; conditions: foliar spray 500 ppm, 3 weeks, rank vs non-treated
Procedure, shortened: (§2)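 Wettable powders at 500 ppm, with 0.5% surfactant, were sprayed uniformly over plants raised for roughly 2 weeks in glasshouse pots of volcanic ash soil. Herbicidal damage rated on a 0–5 scale (5 = all killed) after a further 3 weeks at an average 25 °C.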

[3] = system: young rice plant; assay: Herbicidal test for paddy field; type: in vivo; conditions: paddy field pot, 500 g/ha dropwise at 1.5 leaf stage of barnyardgrass, 3 weeks, rank vs non-treated
Procedure, shortened: as §1

[4] = system: annual bluegrass; assay: Foliar spread test for upland field; type: in vivo, Poa annua; conditions: foliar spray 500 ppm, 3 weeks, rank vs non-treated
Procedure, shortened: as §2

[5] = system: common lambsquartes; assay: Foliar spread test for upland field; type: in vivo, Chenopodium album; conditions: foliar spray 500 ppm, 3 weeks, rank vs non-treated
Procedure, shortened: as §2

[6] = system: bulrush; assay: Herbicidal test for paddy field; type: in vivo, Scrips juncoides; conditions: paddy field pot, 500 g/ha dropwise at 1.5 leaf stage of barnyardgrass, 3 weeks, rank vs non-treated
Procedure, shortened: as §1

[7] = system: barnyardgrass; assay: Herbicidal test for paddy field; type: in vivo, Echinochloa crusgalli; conditions: paddy field pot, 500 g/ha dropwise at 1.5 leaf stage of barnyardgrass, 3 weeks, rank vs non-treated
Procedure, shortened: as §1

[8] = system: livid amaranth; assay: Foliar spread test for upland field; type: in vivo, Amaranthus lividus; conditions: foliar spray 500 ppm, 3 weeks, rank vs non-treated
Procedure, shortened: as §2

[9] = system: blackgrass; assay: Foliar spread test for upland field; type: in vivo, Alopecurus aegualis; conditions: foliar spray 500 ppm, 3 weeks, rank vs non-treated
Procedure, shortened: as §2

[10] = system: barnyardgrass; assay: Foliar spread test for upland field; type: in vivo, Echinochloa crusgalli; conditions: foliar spray 500 ppm, 3 weeks, rank vs non-treated
Description: (§3) (0: normal development, 1: Less damaged, 2: Slightly damaged, 3: Moderately damaged, 4: Severely damaged, 5: All killed).
Wagner pots, each having an area of 1/5000 are, were packed with volcanic ash soil and then each seed of corn, soybean, cotton, wheat, solgum, sugar beat, Large crabgrass, barnyardgrass, green foxtail, blackgrass, annual bluegrass, common lambsquartes, livid amaranth, velvetleaf and morning glory was planted, covered with soil and grown in a glass house at an average temperature of […] for about 2 weeks.
Each wettable powder of the desired compounds (I) shown in Table 1 prepared in accordance with Example 2 was diluted to 500 ppm with water containing a surfactant (0.5%) and then uniformly sprayed on the above respective plants.
After these plants were controlled in a glass house at an average temperature of 25° C. for 3 weeks, the herbicidal effects thereof were investigated.
The herbicidal effects were evaluated according to the evaluation method described in the above (1).

[11] = system: sugar beat; assay: Foliar spread test for upland field; type: in vivo; conditions: foliar spray 500 ppm, 3 weeks, rank vs non-treated
Procedure, shortened: as §2

[12] = system: wheat; assay: Foliar spread test for upland field; type: in vivo; conditions: foliar spray 500 ppm, 3 weeks, rank vs non-treated
Procedure, shortened: as §2

[13] = system: corn; assay: Foliar spread test for upland field; type: in vivo; conditions: foliar spray 500 ppm, 3 weeks, rank vs non-treated
Procedure, shortened: as §2

[14] = system: solgum; assay: Foliar spread test for upland field; type: in vivo; conditions: foliar spray 500 ppm, 3 weeks, rank vs non-treated
Procedure, shortened: as §2

[15] = system: soybean; assay: Foliar spread test for upland field; type: in vivo; conditions: foliar spray 500 ppm, 3 weeks, rank vs non-treated
Procedure, shortened: as §2

[16] = system: cotton; assay: Foliar spread test for upland field; type: in vivo; conditions: foliar spray 500 ppm, 3 weeks, rank vs non-treated
Procedure, shortened: as §2

[17] = system: green foxtail; assay: Foliar spread test for upland field; type: in vivo, Setaria viridis; conditions: foliar spray 500 ppm, 3 weeks, rank vs non-treated
Procedure, shortened: as §2

[18] = system: flat sedge; assay: Herbicidal test for paddy field; type: in vivo, Cyperus serotinus; conditions: paddy field pot, 500 g/ha dropwise at 1.5 leaf stage of barnyardgrass, 3 weeks, rank vs non-treated
Method: Wagner pots, each having an area of 1/5000 are, were packed with Ube soil (alluvial soil) and planted with seeds or tubers of young rice plant, barnyardgrass, bulrush, flat sedge and monochoria. Then, the pots were filled with water to a depth of 3 cm.
Each wettable powder of the desired compounds (I) shown in Table 1 prepared in accordance with Example 2 was diluted with water containing a surfactant (0.05%) and subjected to dropwise addition treatment by using pipet so that an effective concentration of the compound (I) in each herbicide became 500 g/ha at 1.5 leaf stage of barnyardgrass.
These plants were controlled in a glass house at an average temperature of 25° C. for 3 weeks, and then herbicidal effects thereof were investigated.
The herbicidal effects are evaluated according to the following 6 ranks as compared with non-treated district.
as §3

[19] = system: morning glory; assay: Foliar spread test for upland field; type: in vivo, Ipomoea spps.; conditions: foliar spray 500 ppm, 3 weeks, rank vs non-treated
Procedure, shortened: as §2

[20] = system: Large crabgrass; assay: Foliar spread test for upland field; type: in vivo, Digitaria adscendens; conditions: foliar spray 500 ppm, 3 weeks, rank vs non-treated
Procedure, shortened: as §2

## CCCC(Oc1cccc(C#N)c1)c1nc2cc(Cl)ccc2o1 (centres unmarked) [Compound 457]
[1]
  Effect Monochoria: 4
[2]
  Effects Velvetleaf: 3
[3]
  Effect Young rice plant: 1
[4]
  Effects Annual bluegrass: 2
[5]
  Effects Common lambsquarters: 3
[6]
  Effect Bulrush: 4
[7]
  Effect Barnyardgrass: 4
[8]
  Effects Livid amaranth: 4
[9]
  Effects Blackgrass: 2
[10]
  Effects Barnyardgrass: 2
[11]
  Effects Sugar beat: 3
[12]
  Effects Wheat: 2
[13]
  Effects Corn: 1
[14]
  Effects Solgum: 2
[15]
  Effects Soybean: 3
[16]
  Effects Cotton: 3
[17]
  Effects Green foxtail: 3
[18]
  Effect Flat sedge: 4
[19]
  Effects Morning glory: 3
[20]
  Effects Large crabgrass: 2
